As a reminder, the EC50 is the concentration that produces a half-maximal response.

Eight compounds from US20260355323A1, “CEREBLON-RECRUITING BCL-XL/BCL-2 DUAL DEGRADERS” (University of Florida Research Foundation, Incorporated, priority 2022, published 2026) can be followed below.

Assay [1] relates to MOLT-4 acute lymphoblastic leukemia cells. Briefly: Cell viability, tetrazolium-based MTS assay, MOLT-4. The conditions noted are these: Homo sapiens, MOLT-4, 48 h; read-out: Anti-Cancer Activity EC50 (48 hr), MOLT-4. The method, then:
(§1) Acute lymphoblastic leukemia cells (MOLT-4 and RS4;11) were incubated with increasing concentrations of Bcl-xL/Bcl-2 degraders for 48 h. Cell viability was measured by tetrazolium-based MTS assay.
On the technique in general: Tetrazolium assays rely on reduction of a dye to a coloured formazan, in cell work by metabolically active cells.

The target in assay [2] is T1, Bcl-xL (Homo sapiens, UniProt Q07817).
T1 construct: immunoblot after 16 h degrader treatment
T1 sequence (Q07817 whole entry): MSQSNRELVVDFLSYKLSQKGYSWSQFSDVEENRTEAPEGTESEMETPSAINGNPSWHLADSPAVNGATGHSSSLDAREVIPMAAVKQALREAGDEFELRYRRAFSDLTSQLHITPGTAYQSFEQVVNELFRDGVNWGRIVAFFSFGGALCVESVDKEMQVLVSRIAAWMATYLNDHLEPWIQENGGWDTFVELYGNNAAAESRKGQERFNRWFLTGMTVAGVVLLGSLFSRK
T1 sequence (Q96SW2 whole entry partner): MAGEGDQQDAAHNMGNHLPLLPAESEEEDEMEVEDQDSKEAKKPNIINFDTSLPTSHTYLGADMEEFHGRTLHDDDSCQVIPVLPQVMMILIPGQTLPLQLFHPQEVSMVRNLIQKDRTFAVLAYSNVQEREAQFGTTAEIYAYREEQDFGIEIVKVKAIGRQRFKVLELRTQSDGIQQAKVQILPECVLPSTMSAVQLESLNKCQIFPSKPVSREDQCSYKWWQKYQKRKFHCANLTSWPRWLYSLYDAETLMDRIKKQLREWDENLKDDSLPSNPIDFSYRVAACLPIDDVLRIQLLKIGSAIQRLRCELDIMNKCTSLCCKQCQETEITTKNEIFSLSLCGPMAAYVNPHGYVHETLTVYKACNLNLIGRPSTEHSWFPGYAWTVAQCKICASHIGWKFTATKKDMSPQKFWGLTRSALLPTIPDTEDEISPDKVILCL
The assay is described as follows: Bcl-xL protein degradation in Jurkat cells (immunoblot). Particulars: 16 h. Type of assay: cell-based. The method, then: (§2) Jurkat and Hela cells were incubated with increasing concentrations of test compounds for 16 h. The cells were harvested and lysed in RIPA lysis buffer supplemented with protease and phosphatase inhibitor cocktails. An equal amount of protein (20 μg/lane) was resolved on a pre-cast 4-20% SDS-PAGE gel. Proteins were subsequently transferred to NOVEX PVDF membranes by electrophoresis. The membranes were blocked in blocking buffer (5% non-fat dry milk in TBS-T), and incubated with primary antibodies (at optimized concentrations) overnight at 4° C. After three washings in TBS-T, the membranes were incubated with an appropriate FIRP-conjugated secondary antibody for 1 h at room temperature. After extensive washing for three times, the proteins of interest were detected with ECL western blotting detection reagents and recorded with autoradiography (Pierce Biotech, Rockford, IL, USA). The primary antibodies for Bcl-xL (Cat #2762), Bcl-2 (Cat #2872), Bcl-w (Cat #2724) and β-actin (Cat #4970) were purchased from Cell Signaling Technology. The relative band intensity was measured using ImageJ software and normalized to β-actin.

The subject of assay [3] is WI-38 irradiation-induced senescent cells (IR-SC). Briefly: Senolytic activity, cell viability (PrestoBlue HS), WI-38 IR-SC. The conditions noted are these: Homo sapiens, 72 h. Type of assay: cell-based. Here is the method:
(§3) To induce senescence in WI-38 and HUVEC, cells were subjected to x-ray irradiation at 20 Gray using X-RAD 320 biological irradiator. Following between 10 to 15 days after irradiation, senescence was induced in cells, and irradiation-induced senescent cells (IR-SC) were then used for cell viability and Western blotting tests.
(§4) WI-38 and HUVEC cells were incubated with increasing concentrations of degraders for 72 h. Cell viability was measured using PrestoBlue HS cell viability reagent.

For assay [4], the system named is RS4;11 acute lymphoblastic leukemia cells. The assay is described as follows: Cell viability, tetrazolium-based MTS assay, RS4;11. The conditions noted are these: Homo sapiens, RS4;11, 48 h, read-out: Anti-Cancer Activity EC50 (48 hr), RS4. The method, then:
as §1

The target of assay [5] is T1, Bcl-xL. Briefly: Bcl-xL protein degradation in Hela cells (immunoblot). Format: cell-based. The conditions noted are these: 16 h. Here is the method: as §2
On the technique in general: Immunoblotting shows a protein as a band on a membrane.

Assay [6] concerns WI-38 NC. The assay is described as follows: Senolytic activity, cell viability (PrestoBlue HS), WI-38 NC. Type of assay: cell-based. The conditions noted are these: Homo sapiens, 72 h. The method, then: as §4
Assay [7] relates to HUVEC irradiation-induced senescent cells (IR-SC). The assay is described as follows: Senolytic activity, cell viability (PrestoBlue HS), HUVEC IR-SC. Format: cell-based. Particulars: Homo sapiens, 72 h. Here is the method: as §3, §4

Structures are written as SMILES.

Regarding `C[C@@]1(CN2CCN(C(=O)CN3CCN(c4ccc5c(c4)CN(C4CCC(=O)NC4=O)C5=O)CC3)CC2)CCC(c2ccc(Cl)cc2)=C(CN2CCN(c3ccc(C(=O)NS(=O)(=O)c4ccc(N[C@H](CCN5CCCOCC5)CSc5ccccc5)c(S(=O)(=O)C(F)(F)F)c4)cc3)CC2)C1` (stereo partly drawn) [Compound 1, N-((4-(((R)-4-(1,4-oxazepan-4-yl)-1-(phenylthio)butan-2-yl)amino)-3-((trifluoromethyl)sulfonyl)phenyl)sulfonyl)-4-(4-(((4R)-4′-chloro-4-((4-(2-(4-(2-(2,6-dioxopiperidin-3-yl)-1-oxoisoindolin-5-yl)piperazin-1-yl)acetyl)piperazin-1-yl)methyl)-4-methyl-3,4,5,6-tetrahydro-[1,1′-biphenyl]-2-yl)methyl)piperazin-1-yl)benzamide], the EC50 is under 1 nM in assay [1], 1 to 10 nM in assay [3], under 1 nM in assay [4] and over 10000 nM in assay [6]. Further, the “degradation of Bcl-xL” value in assay [2] and in assay [5] was “degrade Bcl-xL in a dose-dependent manner” throughout.
For `C[C@@]1(CN2CCN(C(=O)CN3CCN(CC#Cc4ccc5c(c4)CN(C4CCC(=O)NC4=O)C5=O)CC3)CC2)CCC(c2ccc(Cl)cc2)=C(CN2CCN(c3ccc(C(=O)NS(=O)(=O)c4ccc(N[C@H](CCN5CCCOCC5)CSc5ccccc5)c(S(=O)(=O)C(F)(F)F)c4)cc3)CC2)C1` (stereo partly drawn) [Compound 4, N-((4-(((R)-4-(1,4-oxazepan-4-yl)-1-(phenylthio)butan-2-yl)amino)-3-((trifluoromethyl)sulfonyl)phenyl)sulfonyl)-4-(4-(((4R)-4′-chloro-4-((4-(2-(4-(3-(2-(2,6-dioxopiperidin-3-yl)-1-oxoisoindolin-5-yl)prop-2-yn-1-yl)piperazin-1-yl)acetyl)piperazin-1-yl)methyl)-4-methyl-3,4,5,6-tetrahydro-[1,1′-biphenyl]-2-yl)methyl)piperazin-1-yl)benzamide], the EC50 in assay [1] was under 1 nM; in assay [3], 1 to 10 nM; in assay [4], under 1 nM; in assay [6], over 10000 nM. The “degradation of Bcl-xL” value in assay [2] and in assay [5] was “degrade Bcl-xL in a dose-dependent manner” throughout.
For `C[C@@]1(CN2CCC(CN3CCC(CN4CCN(c5ccc6c(c5)CN(C5CCC(=O)NC5=O)C6=O)CC4)CC3)CC2)CCC(c2ccc(Cl)cc2)=C(CN2CCN(c3ccc(C(=O)NS(=O)(=O)c4ccc(N[C@H](CCN5CCCOCC5)CSc5ccccc5)c(S(=O)(=O)C(F)(F)F)c4)cc3)CC2)C1` (stereo partly drawn) [Compound 12, N-((4-(((R)-4-(1,4-oxazepan-4-yl)-1-(phenylthio)butan-2-yl)amino)-3-((trifluoromethyl)sulfonyl)phenyl)sulfonyl)-4-(4-(((4R)-4′-chloro-4-((4-((4-((4-(2-(2,6-dioxopiperidin-3-yl)-1-oxoisoindolin-5-yl)piperazin-1-yl)methyl)piperidin-1-yl)methyl)piperidin-1-yl)methyl)-4-methyl-3,4,5,6-tetrahydro-[1,1′-biphenyl]-2-yl)methyl)piperazin-1-yl)benzamide], the EC50 was under 1 nM in assay [1], 10 to 100 nM in assay [3], under 1 nM in assay [4] and over 10000 nM in assay [6]. The “degradation of Bcl-xL” value in assay [2] and in assay [5] was “degrade Bcl-xL in a dose-dependent manner” throughout.
For `CC1(CN2CCN(C(=O)CN3CCN(C(=O)COCCNc4cccc5c4C(=O)N(C4CCC(=O)NC4=O)C5=O)CC3)CC2)CCC(c2ccc(Cl)cc2)=C(CN2CCN(c3ccc(C(=O)NS(=O)(=O)c4ccc(N[C@H](CCN5CCOCC5)CSc5ccccc5)c(S(=O)(=O)C(F)(F)F)c4)cc3)CC2)C1` (stereo partly drawn) [Compound 15, 4-(4-((4′-chloro-4-((4-(2-(4-(2-(2-((2-(2,6-dioxopiperidin-3-yl)-1,3-dioxoisoindolin-4-yl)amino)ethoxy)acetyl)piperazin-1-yl)acetyl)piperazin-1-yl)methyl)-4-methyl-3,4,5,6-tetrahydro-[1,1′-biphenyl]-2-yl)methyl)piperazin-1-yl)-N-((4-(((R)-4-morpholino-1-30 (phenylthio)butan-2-yl)amino)-3-((trifluoromethyl)sulfonyl)phenyl)sulfonyl)benzamide], the EC50 is under 1 nM in assay [1], 10000 to 100000 nM in assay [3], under 1 nM in assay [4] and over 10000 nM in assay [6].
With `CC1(CN2CCN(C(=O)CN3CCN(C(=O)CNc4cccc5c4C(=O)N(C4CCC(=O)NC4=O)C5=O)CC3)CC2)CCC(c2ccc(Cl)cc2)=C(CN2CCN(c3ccc(C(=O)NS(=O)(=O)c4ccc(N[C@H](CCN5CCOCC5)CSc5ccccc5)c(S(=O)(=O)C(F)(F)F)c4)cc3)CC2)C1` (stereo partly drawn) [Compound 16, 4-(4-((4′-chloro-4-((4-(2-(4-((2-(2,6-dioxopiperidin-3-yl)-1,3-dioxoisoindolin-4-yl)glycyl)piperazin-1-yl)acetyl)piperazin-1-yl)methyl)-4-methyl-3,4,5,6-tetrahydro-[1,1′-biphenyl]-2-yl)methyl)piperazin-1-yl)-N-((4-(((R)-4-morpholino-1-(phenylthio)butan-2-yl)amino)-3-((trifluoromethyl)sulfonyl)phenyl)sulfonyl)benzamide], the 50% effective concentration (EC50) in assay [1] is under 1 nM; in assay [3], 10 to 100 nM; in assay [4] it was under 1 nM; in assay [6] it was over 10000 nM.
For the compound `CC1(CN2CCN(C(=O)CN3CCN(C(=O)COc4cccc5c4C(=O)N(C4CCC(=O)NC4=O)C5=O)CC3)CC2)CCC(c2ccc(Cl)cc2)=C(CN2CCN(c3ccc(C(=O)NS(=O)(=O)c4ccc(N[C@H](CCN5CCOCC5)CSc5ccccc5)c(S(=O)(=O)C(F)(F)F)c4)cc3)CC2)C1` (stereo partly drawn) [Compound 18, 4-(4-((4′-chloro-4-((4-(2-(4-(2-((2-(2,6-dioxopiperidin-3-yl)-1,3-dioxoisoindolin-4-yl)oxy)acetyl)piperazin-1-yl)acetyl)piperazin-1-yl)methyl)-4-methyl-3,4,5,6-tetrahydro-[1,1′-biphenyl]-2-yl)methyl)piperazin-1-yl)-N-((4-(((R)-4-morpholino-1-(phenylthio)butan-2-yl)amino)-3-((trifluoromethyl)sulfonyl)phenyl)sulfonyl)benzamide], the EC50 in assay [1] is under 1 nM; in assay [3], 10 to 100 nM; in assay [4] it was under 1 nM; in assay [6] it was over 10000 nM.
Regarding `C[C@@]1(CN2CCN(c3ccc4c(c3)C(=O)N(C3CCC(=O)NC3=O)C4)CC2)CCC(c2ccc(Cl)cc2)=C(CN2CCN(c3ccc(C(=O)NS(=O)(=O)c4ccc(N[C@H](CCN5CCCOCC5)CSc5ccccc5)c(S(=O)(=O)C(F)(F)F)c4)cc3)CC2)C1` (stereo partly drawn) [Compound 133, N-((4-(((R)-4-(1,4-oxazepan-4-yl)-1-(phenylthio)butan-2-yl)amino)-3-((trifluoromethyl)sulfonyl)phenyl)sulfonyl)-4-(4-(((4R)-4′-chloro-4-((4-(2-(2,6-dioxopiperidin-3-yl)-3-oxoisoindolin-5-yl)piperazin-1-yl)methyl)-4-methyl-3,4,5,6-tetrahydro-[1,1′-biphenyl]-2-yl)methyl)piperazin-1-yl)benzamide], the 50% effective concentration (EC50) in assay [1] is under 1 nM; in assay [3], 10 to 100 nM; in assay [4] it was 1 to 10 nM; in assay [7] it was under 1 nM.
With `C[C@@]1(CN2CCC(CN3CCN(c4ccc(NC5CCC(=O)NC5=O)cc4F)CC3)CC2)CCC(c2ccc(Cl)cc2)=C(CN2CCN(c3ccc(C(=O)NS(=O)(=O)c4ccc(N[C@H](CCN5CCCOCC5)CSc5ccccc5)c(S(=O)(=O)C(F)(F)F)c4)cc3)CC2)C1` (stereo partly drawn) [Compound 141, N-((4-(((R)-4-(1,4-oxazepan-4-yl)-1-(phenylthio)butan-2-yl)amino)-3-((trifluoromethyl)sulfonyl)phenyl)sulfonyl)-4-(4-(((4R)-4′-chloro-4-((4-((4-(4-((2,6-dioxopiperidin-3-yl)amino)-2-fluorophenyl)piperazin-1-yl)methyl)piperidin-1-yl)methyl)-4-methyl-3,4,5,6-tetrahydro-[1,1′-biphenyl]-2-yl)methyl)piperazin-1-yl)benzamide], the EC50 in assay [1] was 1 to 10 nM; in assay [3], 1 to 10 nM; in assay [4], 1 to 10 nM; in assay [7] it was under 1 nM; in assay [6], over 10000 nM.
